According to publication PMC11251039, “Harnessing cholesterol uptake of malaria parasites for therapeutic applications” (EMBO Molecular Medicine, 2024):
Where “and” joins values, the source holds several entries; their conditions need not be identical. Equal values may be shown once. Read-outs that look alike come from different tables or passages of the source.

How the values were obtained:
[1] = test system: asexual P. falciparum 3D7 wild-type parasites; assay: P. falciparum asexual growth inhibition assay (SYBR Safe DNA replication); assay type: cell-based, Plasmodium falciparum; parameters: Figure 5B dose-response source data (growth, replicate values): unit not given here; conditions: for Figure 5B dose-response source data (growth, replicate values): individual replicates; for IC50: 72 h, read-out: IC50, P. falciparum asexual growth inhibition
Experimental: P. falciparum asexual parasite assays commenced with ring-stage parasites at 1% parasitaemia and 1% haematocrit. 200 nM chloroquine (Sigma C6628) or artesunate (Sigma A3731) was used as a no-growth control. DNA replication (indicating growth) was measured at the specified time using SYBR Safe DNA Gel Stain (Invitrogen 33102) and a fluorescence microplate reader (Smilkstein et al, [2004]; Spry et al, [2013]). […]
Growth and Viability Inhibition Assays:
Plasmodium falciparum Growth Inhibition Assays:
P. falciparum parasites were maintained under routine culture conditions in red blood cells and RPMI 1640-Hepes with Glutamax, supplemented with 10 mM D-glucose, 480 μM hypoxanthine, 20 μg/mL gentamicin, 0.375% (w/v) AlbuMAXTM II (Thermo Fisher 11021029), and 2.5% v/v heat-inactivated human serum (17). Cultures were maintained at 37 °C […]
wildtype parasites except for the ring stage survival assay, as specified. Cultures were synchronised with 5% w/v D-sorbitol (18).
Growth inhibition was investigated according to methods described by Smilkstein et al. (19) with modifications by Spry et al. (20). Compounds or solvent controls (DMSO, ethanol, or ethyl acetate) were serially diluted 2-fold across flat-bottom 96-well plates. Culture media without compound was used as a negative control. 200 nM chloroquine (Sigma C6628) or artesunate (Sigma A3731) was used as a positive control to determine background fluorescence. The parasitaemia of a culture containing predominantly ring stage parasites was counted by Giemsa smear. The parasitaemia was adjusted to 1% by addition of fresh uRBCs and added to the plate at a final haematocrit of 1%, with 200 µL per well. The plates were incubated at 37 °C under humid microaerophilic conditions. After 24, 48, or 72 hours, the plates were transferred to a -18 °C freezer to stop the assay and lyse cells. Plates were thawed and lysate was mixed 1:1 with SYBR Safe DNA Gel Stain (Invitrogen 33102) (final concentration 1/10,000) diluted in lysis buffer (20 mM TRIS, 5 mM EDTA, 0.008% w/v Saponin, 0.08% w/v Triton-X 100, pH 7.5). Fluorescence was detected at 490 nm excitation/ 520 nm emission on a FLUOstar Optima fluorescence plate reader (BMG Labtech).

[2] = test system: human embryonic kidney cells (HEK293); assay: Human embryonic kidney cell viability assay (MTT); assay type: cell-based; conditions: for Dose-response data points (Figure 5C): replicate data points; for IC50: 96 h, HEK293, read-out: IC50, human embryonic kidney cell inhibition (viability)
Experimental: HEK293 cell viability assays commenced with 5000 cells per well. 10 µg/mL cycloheximide was used as a no-growth control. Metabolic capacity (indicating viability) was measured in an absorbance microplate reader after incubation with 0.45 mg/mL methylthiazolyldiphenyl-tetrazolium bromide (MTT; Sigma M2128) for 2 h followed by crystal solubilisation in SDS. […]
Human Embryonic Kidney Cell Viability Assays:
Human Embryonic Kidney Cell (HEK293) culture:
The HEK293 cell line was maintained under routine culture conditions in DMEM containing 3.7 g/L NaHCO3 supplemented with 10% FBS, 200 μM glutamine, 100 units/mL penicillin, and 100 μg/mL streptomycin at 37 °C in a humidified 5% CO2 incubator.
Cells were detached from a flask using 0.25% Trypsin with 0.2 g/L EDTA (Sigma T4049) and washed with culture media containing no phenol red. Cells were incubated with a serial dilution of each compound, or media/DMSO alone. The protein synthesis inhibitor cycloheximide (Sigma 01810) at 10 µg/mL was used as a positive control to determine background absorbance. 5,000 cells were seeded in each well. After 96 hours, 0.45 mg/mL methylthiazolyldiphenyl-tetrazolium bromide (MTT; Sigma M2128) was added and incubated for a further two hours, before mixing 1.1:1 with 10% w/v sodium dodecyl sulfate (SDS) to solubilise crystals and freezing the plate at -18 °C to stop the assay. […]

Structure (SMILES): C[C@]12CC[C@H](O)CC1=CC[C@@H]1[C@@H]2CC[C@]2(C)C(=O)CC[C@@H]12 [DHEA, Dehydroepiandrosterone]
- Figure 5B dose-response source data (growth, replicate values) ([1]; Concentration 1.5625 uM): 105 and 100.9 and 101.2 (2×) and 104.8 and 107.1 and 104 and 104.2 and 97.24
- Figure 5B dose-response source data (growth, replicate values) ([1]; Concentration 3.125 uM): 99.54 and 98.59 and 99.35 and 103.6 and 96.02 and 105.9 and 103.9 and 101.1 and 100.2
- Figure 5B dose-response source data (growth, replicate values) ([1]; Concentration 6.25 uM): 94.64 and 99.33 and 101.7 and 100.2 (2×) and 103.5 and 102.7 and 100.1 and 101.2
- Figure 5B dose-response source data (growth, replicate values) ([1]; Concentration 12.5 uM): 97.83 and 97.77 and 98.63 and 101.4 and 104.7 and 102.2 and 102.3 and 100.6 and 97.67
- Figure 5B dose-response source data (growth, replicate values) ([1]; Concentration 25 uM): 97.33 and 98.84 and 99.51 and 104.1 and 102.5 and 109.8 and 97.3 and 98.4 and 101.2
- Figure 5B dose-response source data (growth, replicate values) ([1]; Concentration 50 uM): 91.17 and 88.79 and 89.21 and 91.36 and 96.36 and 97.35 and 94.23 and 92.68 and 93.65
- Figure 5B dose-response source data (growth, replicate values) ([1]; Concentration 100 uM): 80.03 and 78.97 and 77.22 and 68.91 and 88.77 and 89.83 and 76.17 and 73.25 and 71.62
- Figure 5B dose-response source data (growth, replicate values) ([1]; Concentration 200 uM): 36.08 and 37.08 and 31 and 29.85 and 51.4 and 44.23 and 15.92 and 13.39 and 11.5
- Figure 5B dose-response source data (growth, replicate values) ([1]; Concentration 400 uM): 0.02245 and -0.2944 and -1.594 and 1.899 and 4.652 and 1.525 and -5.885 and -7.232 and -8.092
- IC50 ([1]; Plasmodium falciparum, 3D7, 72 h): 150 µM
- Dose-response data points (Figure 5C) ([2]; 3.125000 μM): 108.5 and 113.8 and 102.3 and 90.3 and 90.17 and 89.76
- Dose-response data points (Figure 5C) ([2]; 6.250000 μM): 115 and 79.4 and 102.8 and 86.08 and 90.81 and 85.1
- Dose-response data points (Figure 5C) ([2]; 12.500000 μM): 83.96 and 112.7 and 100.9 and 95.11 and 92.95 and 84.24 and 113.9 and 109.3 and 94.8 and 88.3 and 83.73 and 81.43
- Dose-response data points (Figure 5C) ([2]; 25.000000 μM): 74.02 and 110.4 and 109.9 and 89.17 and 79.81 and 87.49 and 124 and 119.6 and 106.3 and 78.12 and 83.41 and 71.52
- Dose-response data points (Figure 5C) ([2]; 50.000000 μM): 65.27 and 101.5 and 98.29 and 73.76 and 69.18 and 75.02 and 111.3 and 62.75 and 93.36 and 87.06 and 86.25 and 84.64
- Dose-response data points (Figure 5C) ([2]; 100.000000 μM): 28.83 and 48.06 and 53.97 and 38.87 and 26.11 and 38.89 and 29.34 and 31.58 and 34.33 and 61 and 65.6 and 64
- Dose-response data points (Figure 5C) ([2]; 200.000000 μM): -0.4301 and 3.655 and 7.381 and -0.1582 and -0.5868 and -0.7801 and -3.647 and -3.757 and -3.702 and -0.3542 and 0.648 and 0.1847
- Dose-response data points (Figure 5C) ([2]; 400.000000 μM): -1.929 and -2.654 and -2.355 and -0.05272 and -1.637 and -1.302 and -3.718 and -4.096 and -4.009 and -3.542 and -3.411 and -3.648
- IC50 ([2]; Homo sapiens): 88.5 µM

Structure (SMILES): CC(C)(C)OOC(C)(C)C [Di-tert-butyl peroxide, di-tert-butyl peroxide, reference compound]
- IC50 [1]: > 25 µM
- Figure 5B dose-response source data (growth, replicate values) ([1]; Concentration 0.039063 uM): 85.18 and 102.4 and 102.7
- Figure 5B dose-response source data (growth, replicate values) ([1]; Concentration 0.078125 uM): 74.12 and 92.74 and 101.2
- Figure 5B dose-response source data (growth, replicate values) ([1]; Concentration 0.15625 uM): 95.05 and 90.78 and 92.5 and 91.43 and 92.81 and 96.62 and 92.25 and 92.33 and 93.69
- Figure 5B dose-response source data (growth, replicate values) ([1]; Concentration 0.1953125 uM): 104.7 and 100.3 and 94.44
- Figure 5B dose-response source data (growth, replicate values) ([1]; Concentration 0.3125 uM): 87.88 and 89.77 and 89.55 and 85.58 and 96.69 and 99.28 and 97.57 and 87.06 and 96.72
- Figure 5B dose-response source data (growth, replicate values) ([1]; Concentration 0.390625 uM): 99.53 and 101.7 and 93.86
- Figure 5B dose-response source data (growth, replicate values) ([1]; Concentration 0.625 uM): 89.02 and 90.9 and 80.19 and 84.44 and 92.83 and 101.4 and 93.27 and 93.75 and 89.82
- Figure 5B dose-response source data (growth, replicate values) ([1]; Concentration 0.78125 uM): 99.16 and 101.8 and 97.31
- Figure 5B dose-response source data (growth, replicate values) ([1]; Concentration 1.25 uM): 89.1 and 88.53 and 87.02 and 94.06 and 87.75 and 98.34 and 95.66 and 89.13 and 92.05
- Figure 5B dose-response source data (growth, replicate values) ([1]; Concentration 1.5625 uM): 96.44 and 101 and 94.23
- Figure 5B dose-response source data (growth, replicate values) ([1]; Concentration 2.5 uM): 90.99 and 88.19 and 94.1 and 84.35 and 90.32 and 96.8 and 92.38 and 90.3 and 90.14
- Figure 5B dose-response source data (growth, replicate values) ([1]; Concentration 3.125 uM): 98.75 and 99.8 and 93.33
- Figure 5B dose-response source data (growth, replicate values) ([1]; Concentration 5 uM): 88.2 and 86.72 and 93.06 and 89.82 and 70.14 and 95.75 and 93.09 and 90.02 and 87.03
- Figure 5B dose-response source data (growth, replicate values) ([1]; Concentration 6.25 uM): 99.66 and 102.1 and 96.08
- Figure 5B dose-response source data (growth, replicate values) ([1]; Concentration 10 uM): 83.27 and 83.85 and 83.43 and 96.65 and 93.69 and 94.13 and 91.37 and 89.09 and 89.4
- Figure 5B dose-response source data (growth, replicate values) ([1]; Concentration 12.5 uM): 105.9 and 89.05 and 98.44
- Figure 5B dose-response source data (growth, replicate values) ([1]; Concentration 25 uM): 103.6 and 101.6 and 94.82
- IC50 [2]: > 100 µM
